Results on four molecules are retold here after US20070032545A1, “Antibiotic fki-1778 and process for producing the same” (priority 2004, published 2007).

Test [1] deals with nauplius larva of Artemia salina. Put plainly: Anti-arthropod activity on nauplius larva in 96-well microplate. In kind it is in vivo. Particulars: observed microscopically after 2 days. Here is the method:
Next, anti-arthropod activities of antibiotic FKI-1778 10 of the present invention are described hereinbelow. Methanol solution of each antibiotic FKI-1778 was placed in the microplate (96 wells) (Corning Corp., the U.S.). […] The buffer solution 50 μl containing several numbers of nauplius larva of Artemia salina, Arthropod, which was incubated in the buffer solution (Tris 20 mM, sodium chloride 440 mM, magnesium chloride 23 mM, sodium carbonate 1.9 mM, magnesium sulfate 53 mM and calcium chloride 10 mM), was added to each well, and the condition thereof was observed microscopically after 2 days.

A further test deals with various microorganisms. Put plainly: Growth inhibitory activity against various microorganisms (summary of Table 2). In kind it is cell-based. The settings on record: result in words. The text has this:
Next, diameters of inhibition ring of antibiotic FKI-1778A, antibiotic FKI-1778B, antibiotic FKI-1778C and antibiotic FKI-1778D against various microorganisms on the nutrient agar medium are shown in Table 2.

Test [2] relates to human leukemia cell strain Jurkat cell. Put plainly: Cell cycle G1 phase terminating activity, DNA content by flow cytometer. The test is classed as cell-based. Particulars: Jurkat cells, 5 μg added to 200 μl medium, 24 hours; for G2/M phase: No addition 22.3; for G1 phase: No addition 53.2. As to the method: Further, a terminating activity of antibiotic FKI-1778 of the present invention against cell cycle G1 phase in cancer cells is explained as follows. Using 96-well microplate (Corning Corp., the U.S.), human leukemia cell strain Jurkat cell, 5×10^5 cells/well, was inoculated into RPMI 1640 medium (IWAKI Corp., Japan) 200 μl containing a mixture of 10% fetal bovine serum and 1% penicillin (10,000 units/ml)—streptomycin (10 mg/ml) (Invitrogen Inc., the U.S.) and cultured. Antibiotic FKI-1778, 5 μg, was added thereto, and the mixture was incubated at 37° C. for 24 hours under 5% CO2 atmosphere, and the culture supernatant was discarded. Cells were suspended in 0.1% aqueous sodium citrate solution (200 μl) containing 0.002% ribonuclease A (Sigma Corp., the U.S.), 0.005% propidium iodide (Sigma Corp., the U.S.) and 0.3 ml/100 ml IGEPAL-CA-630 (Sigma Corp., the U.S.). After the cell suspension was allowed to stand for 2 hours or more, DNA contents in 10,000 cells were measured by using flow cytometer (FACS Calibur, Becton, Dickinson and Company, the U.S.), then DNA contents of cells in G1 phase, S phase and G2/M phase were measured by using software, Cell Quest (Becton, Dickinson and Company, the U.S.).

Molecules are shown by their SMILES.

On to `C=C1CCC2C(C)(CC/C=C(\C)C(=O)O)C(OC(C)=O)CCC2(C)C1Cc1c(O)c(C)c(C)oc1=O` (stereo not shown) [FKI-1778A], for which the Anti-arthropod activity in test [1] is over 200 µg/mL. For the same molecule, the “growth inhibitory activities against various microorganisms” value (shortened to “growth inhibitory activities”) in the test with various microorganisms is recorded as “no growth inhibitory activities”. Moreover, in test [2], the G2/M phase came to 12.8% and the G1 phase is given as 62.4%.

`C=C1CCC2C(C)(CC/C=C(\C)CO)C(OC(C)=O)CCC2(C)C1Cc1c(O)c(C)c(C)oc1=O` (stereo not shown) [FKI-1778B]: the Anti-arthropod activity in test [1] came out at 100 µg/mL. In the test on various microorganisms, the “growth inhibitory activities” value is “no growth inhibitory activities”. Further, in test [2], the G2/M phase was 12.0% and the G1 phase worked out at 55.0%.

The molecule `C=C(C)C(O)CCC1(C)C(OC(C)=O)CCC2(C)C(Cc3c(O)c(C)c(C)oc3=O)C(=C)CCC12` (stereo not shown) [FKI-1778C] had an Anti-arthropod activity in test [1] of over 200 µg/mL. For the same molecule, the “growth inhibitory activities” value in the test on various microorganisms is on record as “no growth inhibitory activities”. In test [2], this molecule came in with a G2/M phase of 13.0% and a G1 phase of 64.2%.

`C=C1CCC2C(C)(CC/C=C(/C)CO)C(OC(C)=O)CCC2(C)C1Cc1c(O)c(C)c(C)oc1=O` (stereo not shown) [FKI-1778D] came in with an Anti-arthropod activity in test [1] of 100 µg/mL. In the test on various microorganisms, the “growth inhibitory activities” value is listed as “no growth inhibitory activities”. In test [2], this molecule displayed a G2/M phase of 9.9% and a G1 phase of 63.9%.
